{"source": "patent US20260325661A1", "about": "“ANTIBODY-CONJUGATED IMMUNO-ACTIVATING SMALL MOLECULE COMPOUND, AND USE” (SHENZHEN CONJUGENIX PHARMACEUTICAL TECHNOLOGY CO., LTD, priority 2023, published 2026)", "system": "human peripheral blood mononuclear cells (PBMCs)", "test": "ELISA assay of immunocyte activator: induction of IFN-γ in human PBMCs", "assay_type": "cell-based", "method": "The immune activity of each compound is represented by the function of inducing human peripheral blood mononuclear cells (PBMCs) to produce the immune cytokine IFN-γ by, and the EC50 values thereof are shown in Table 3.\n• 1) Peripheral blood samples from healthy human volunteer were collected into heparin anticoagulant tubes to reach 5 mL of fresh blood, and PBS was added at a ratio of 1:1 to dilute the blood (2 mL+2 mL in conventional blood collection tubes). • 2) 5 mL of lymphocyte separation medium was put in a 15 mL sterile centrifuge tube for use. • 3) The diluted blood was aspirated and slowly added from 1 cm above the separation medium along the tube wall, so that the diluted blood overlaid the separation medium and formed a distinct interface therewith. • 4) The centrifuge tube was centrifuged at 2000 rpm at room temperature for 20 min. Now five layers formed in the centrifuge tube: the top layer was plasma layer, and the layer between the plasma layer and the lymphocyte separation medium was the lymphocyte layer as a white film. • 5) The mononuclear cell layer as a white film in the middle was aspirated carefully and mononuclear cells were aspirated as many as possible. The mononuclear cells were washed by more than 5 volumes of PBS twice, and each time, the mononuclear cells were centrifuged at 1500 rpm for 10 min. • 6) The supernatant was removed, then 1 mL of 1640 medium was added and mixed uniformly. A small amount of the mixture was taken for cell counting.\nThe prepared PBMCs were plated in a 96-well plate (Costar, 3894) (2×10^5 cells per well). Each compound in Table 3 was taken and added into the wells with plated cells at ten concentrations with uniform gradient distribution (0.0001-10 μM, diluted with […] medium containing […]).", "key": {"[1]": {"settings": "Homo sapiens, PBMC, 24 h, 37 °C, no pretreatment marked, read-out: EC50 IFN-γ ratio (inducing human PBMCs to produce IFN-γ)"}, "[2]": {"settings": "Homo sapiens, PBMC, 24 h, 37 °C, Note a: sample pretreated with human liver microsomal enzyme, 2 h, read-out: EC50 IFN-γ ratio (inducing human PBMCs to produce IFN-γ)"}, "[3]": {"settings": "Homo sapiens, PBMC, 24 h, 37 °C, Note c: sample pretreated with Cathepsin-B (10 μg) in PBS, room temperature, 3 h, read-out: EC50 IFN-γ ratio (inducing human PBMCs to produce IFN-γ)"}}, "note": "Like-named read-outs stand apart in the source and are kept apart here.", "data": [{"molecule": "CCCCOc1nc(N)c2[nH]c(=O)n(Cc3cn(CCOCCOCCOCC(=O)N[C@H](CCCCN=[N+]=[N-])C(=O)O)nn3)c2n1", "note": "[Compound 102-N3]", "values": [{"measurement": "EC50", "setting": "[1]", "result": 180, "unit": "nM"}]}, {"molecule": "CC[C@H](C)[C@@H]([C@@H](CC(=O)N1CCCC1[C@H](OC)[C@@H](C)C(=O)N[C@H](C)[C@@H](O)c1ccccc1)OC)N(C)C(=O)[C@@H](NC(=O)[C@H](C(C)C)N(C)C(=O)OCc1ccc(NC(=O)[C@H](CCCNC(N)=O)NC(=O)[C@@H](NC(=O)C(CCCCc2cn(CCOCCOCCOCCNC(=O)CCN3C(=O)C=CC3=O)nn2)NC(=O)CCC(=O)NCc2ccc(Cn3c(=O)[nH]c4c(N)nc(OCCOC)nc43)cc2)C(C)C)cc1)C(C)C", "note": "(stereo partly shown) [Compound K1]", "values": [{"measurement": "EC50", "setting": "[1]", "result": 100, "unit": "nM"}]}, {"molecule": "COCCOc1nc(N)c2[nH]c(=O)n(Cc3ccc(CNC(=O)CCC(=O)N[C@@H](CCCCNC(=O)OCc4ccc(NC(=O)[C@H](CCCNC(N)=O)NC(=O)[C@@H](NC(=O)CCCCCN5C(=O)C=CC5=O)C(C)C)cc4)C(=O)NCCOCCOCCOCCOCCNC(=O)CCC(=O)N4Cc5ccccc5C#Cc5ccccc54)cc3)c2n1", "note": "[Compound K2]", "values": [{"measurement": "EC50", "setting": "[1]", "result": 50, "unit": "nM"}]}, {"molecule": "COCCOc1nc(N)c2[nH]c(=O)n(Cc3ccc(CNC(=O)CCC(=O)NC(CCCCc4cn(CCOCCOCCOCCNC(=O)CCN5C(=O)C=CC5=O)nn4)C(=O)N[C@H](C(=O)N[C@@H](CCCNC(N)=O)C(=O)Nc4ccc(COC(=O)NC[C@H](C)c5ccc(-c6c(O)cc(C)c7[nH]c(=O)c8sccc8c67)cc5)cc4)C(C)C)cc3)c2n1", "note": "(stereo partly shown) [Compound K3]", "values": [{"measurement": "EC50", "setting": "[1]", "result": 200, "unit": "nM"}]}, {"molecule": "CC[C@H](C)[C@@H]([C@@H](CC(=O)N1CCCC1[C@H](OC)[C@@H](C)C(=O)N[C@H](C)[C@@H](O)c1ccccc1)OC)N(C)C(=O)[C@@H](NC(=O)[C@H](C(C)C)N(C)C(=O)OCc1ccc(NC(=O)[C@H](CCCNC(N)=O)NC(=O)[C@@H](NC(=O)C(CCCCc2cn(CCOCCOCCOCCC(=O)O)nn2)NC(=O)CCC(=O)NCc2ccc(Cn3c(=O)[nH]c4c(N)nc(OCCOC)nc43)cc2)C(C)C)cc1)C(C)C", "note": "(stereo partly shown) [Compound K5]", "values": [{"measurement": "EC50", "setting": "[1]", "result": 130, "unit": "nM"}]}, {"molecule": "CCCCOc1nc(N)c2[nH]c(=O)n(Cc3cn(CCOCCOCCOCC(=O)N[C@H](CCCCNC(=O)OCc4ccc(NC(=O)[C@H](CCCNC(N)=O)NC(=O)[C@@H](NC(=O)CCCCCN5C(=O)C=CC5=O)C(C)C)cc4)C(=O)NCCOCCOCCOCCOCCNC(=O)CCC(=O)N4Cc5ccccc5C#Cc5ccccc54)nn3)c2n1", "note": "[Compound K7]", "values": [{"measurement": "EC50", "setting": "[1]", "result": 45, "unit": "nM"}]}, {"molecule": "CCCCOc1nc(N)c2[nH]c(=O)n(Cc3cn(CCOCCOCCOCC(=O)N[C@H](CCCCc4cn(COCCOCCOCCOCCN5C(=O)C=CC5=O)nn4)C(=O)N[C@H](C(=O)N[C@@H](CCCNC(N)=O)C(=O)Nc4ccc(COC(=O)NC[C@H](C)c5ccc(-c6c(O)cc(C)c7[nH]c(=O)c8sccc8c67)cc5)cc4)C(C)C)nn3)c2n1", "note": "[Compound K8]", "values": [{"measurement": "EC50", "setting": "[1]", "result": 110, "unit": "nM"}]}, {"molecule": "CCCCOc1nc(N)c2c(n1)n(Cc1cn(CCOCCOCCOCCNC(=O)OCc3ccc(NC(=O)[C@H](CCCNC(N)=O)NC(=O)[C@@H](NC(=O)CCCCC(=O)O)C(C)C)cc3)nn1)c(=O)n2C1CCCO1", "note": "(stereo partly shown) [Compound K9]", "values": [{"measurement": "EC50", "setting": "[2]", "result": 9000, "unit": "nM"}]}, {"molecule": "COCCOc1nc(N)c2c(n1)n(Cc1ccc(CNC(=O)CCc3cn(CCOCCOCCOCCNC(=O)OCc4ccc(NC(=O)[C@H](CCCNC(N)=O)NC(=O)[C@@H](NC(=O)CCCCCN5C(=O)C=CC5=O)C(C)C)cc4)nn3)cc1)c(=O)n2C(=O)N1CCN(C)CC1", "note": "[Compound K10]", "values": [{"measurement": "EC50", "setting": "[2]", "result": 210, "unit": "nM"}]}, {"molecule": "COCCOc1nc(N)c2c(n1)n(Cc1ccc(CNC(=O)CCc3cn(CCOCCOCCOCCNC(=O)OCc4ccc(NC(=O)[C@H](CCCNC(N)=O)NC(=O)[C@@H](NC(=O)CCCCC(=O)O)C(C)C)cc4)nn3)cc1)c(=O)n2C1CCCO1", "note": "(stereo partly shown) [Compound K12]", "values": [{"measurement": "EC50", "setting": "[2]", "result": 200, "unit": "nM"}]}, {"molecule": "CCCCOc1nc(N)c2c(n1)c(Cc1ccc3c(c1)CN(C(=O)/C=C/C(=O)c1ccc(OC)cc1)CC3)cn2C(=O)OCc1ccc(NC(=O)[C@H](CCCNC(N)=O)NC(=O)[C@@H](NC(=O)CCOCCOCCOCCOCCN2C(=O)C=CC2=O)C(C)C)cc1", "note": "[Compound K13]", "values": [{"measurement": "EC50", "setting": "[3]", "result": 110, "unit": "nM"}]}, {"molecule": "CCOC(=O)NC(=O)n1c(=O)n(Cc2ccc(CNC(=O)CCc3cn(CCOCCOCCOCCNC(=O)CCN4C(=O)C=CC4=O)nn3)cc2)c2nc(OCCOC)nc(N)c21", "note": "[Compound K14]", "values": [{"measurement": "EC50", "setting": "[2]", "result": 10, "unit": "nM"}]}, {"molecule": "CCOC(=O)NC(=S)n1c(=O)n(Cc2ccc(CNC(=O)CCc3cn(CCOCCOCCOCCNC(=O)CCN4C(=O)C=CC4=O)nn3)cc2)c2nc(OCCOC)nc(N)c21", "note": "[Compound K15]", "values": [{"measurement": "EC50", "setting": "[2]", "result": 12, "unit": "nM"}]}, {"molecule": "COCCOc1nc(N)c2c(n1)n(Cc1ccc(CNC(=O)CCc3cn(CCOCCOCCOCCNC(=O)CCN4C(=O)C=CC4=O)nn3)cc1)c(=O)n2COC(=O)OC(C)C", "note": "[Compound K16]", "values": [{"measurement": "EC50", "setting": "Homo sapiens, PBMC, 24 h, pH 5, 24 h, 37 °C; Note d: sample pretreated by hydrolysis, acetate buffer pH 5, 37 °C, 72 h; read-out: EC50 IFN-γ ratio (inducing human PBMCs to produce IFN-γ)", "result": 11, "unit": "nM"}]}, {"molecule": "CC[C@@]1(O)C(=O)OCc2c1cc1n(c2=O)Cc2c-1nc1cc(F)c(C)c3c1c2[C@@H](NC(=O)CO[Si](OCCOCCOCCNC(=O)C(CCCCc1cn(CCOCCOCCOCCNC(=O)CCN2C(=O)C=CC2=O)nn1)NC(=O)CCC(=O)NCc1ccc(Cn2c(=O)[nH]c4c(N)nc(OCCOC)nc42)cc1)(C(C)C)C(C)C)CC3", "note": "(stereo partly shown) [Compound K17]", "values": [{"measurement": "EC50", "setting": "Homo sapiens, PBMC; 24 h, 37 °C; no pretreatment marked; read-out: EC50 IFN-γ ratio (inducing human PBMCs to produce IFN-γ)", "result": 210, "unit": "nM"}]}, {"molecule": "CCCCOc1nc(N)c2[nH]c(=O)n(Cc3cn(CCOCCOCCOCCN(C[C@H](C)c4ccc(-c5c(O)cc(C)c6[nH]c(=O)c7sccc7c56)cc4)C(=O)OCc4ccc(NC(=O)[C@H](CCCNC(N)=O)NC(=O)[C@@H](NC(=O)CCCCCN5C(=O)C=CC5=O)C(C)C)cc4)nn3)c2n1", "note": "[Compound K18]", "values": [{"measurement": "EC50", "setting": "[1]", "result": 90, "unit": "nM"}]}, {"molecule": "CCCCOc1nc(N)c2[nH]c(=O)n(Cc3cn(CCOCCOCCOCCn4cc(CCCCN(C[C@H](C)c5ccc(-c6c(O)cc(C)c7[nH]c(=O)c8sccc8c67)cc5)C(=O)OCc5ccc(NC(=O)[C@H](CCCNC(N)=O)NC(=O)[C@@H](NC(=O)CCCCCN6C(=O)C=CC6=O)C(C)C)cc5)nn4)nn3)c2n1", "note": "[Compound K19]", "values": [{"measurement": "EC50", "setting": "[1]", "result": 80, "unit": "nM"}]}, {"molecule": "C=CC(=O)N1CCN(c2ncnc3c(F)c(-c4c(F)cccc4OCCc4cn(CCCNc5nc(NCCOCCOCCOCCNC(=O)CCC(=O)NCc6ccc(Cn7c(=O)[nH]c8c(N)nc(OCCOC)nc87)cc6)nc(N6CCC(CNC(=O)OCc7ccc(NC(=O)[C@H](CCCNC(N)=O)NC(=O)[C@@H](NC(=O)CCOCCOCCOCCN=[N+]=[N-])C(C)C)cc7)CC6)n5)nn4)c(Cl)cc23)CC1", "note": "[Compound K21]", "values": [{"measurement": "EC50", "setting": "[1]", "result": 6, "unit": "nM"}]}, {"molecule": "CCCCOc1nc(N)c2c(n1)N(Cc1cn(CCNC(=O)OCc3ccc(NC(=O)[C@H](CCCNC(N)=O)NC(=O)[C@@H](NC(=O)CCOCCOCCOCCOCCN(CCOCCOCCOCCOCCC(=O)N[C@H](C(=O)N[C@@H](CCCNC(N)=O)C(=O)Nc4ccc(COC(=O)NCCn5cc(Cn6c(=O)[nH]c7c(N)nc(OCCCC)nc76)nn5)cc4)C(C)C)C(=O)CCN4C(=O)C=CC4=O)C(C)C)cc3)nn1)C(=O)C2", "note": "[Compound K22]", "values": [{"measurement": "EC50", "setting": "[3]", "result": 80, "unit": "nM"}]}, {"molecule": "COCCOc1nc(N)c2[nH]c(=O)n(Cc3ccc(CNC(=O)CCc4cn(CCOCCOCCOCCN(CCOCCOCCOCCn5cc(CCC(=O)NCc6ccc(Cn7c(=O)[nH]c8c(N)nc(OCCOC)nc87)cc6)nn5)C(=O)OCc5ccc(NC(=O)[C@H](CCCNC(N)=O)NC(=O)[C@@H](CC(=O)NCOCCOCCOCCN=[N+]=[N-])C(C)C)cc5)nn4)cc3)c2n1", "note": "[Compound K23]", "values": [{"measurement": "EC50", "setting": "[1]", "result": 30, "unit": "nM"}]}, {"molecule": "COCCOc1nc(N)c2[nH]c(=O)n(Cc3ccc(CNC(=O)CCC(=O)NC(CCCCc4cn(CCOCCOCCOCCNC(=O)CCN5C(=O)C=CC5=O)nn4)C(=O)NCCOCCOCCOCCOCCNC(=O)CCC(=O)N4Cc5ccccc5C#Cc5ccccc54)cc3)c2n1", "note": "(stereo not shown) [Compound K24]", "values": [{"measurement": "EC50", "setting": "[1]", "result": 3, "unit": "nM"}]}, {"molecule": "COCCOc1nc(N)c2[nH]c(=O)n(Cc3ccc(CNC(=O)CCC(=O)NC(CCCCc4cn(CCOCCOCCOCCNC(=O)CCN5C(=O)C=CC5=O)nn4)C(=O)NCCOCCOCCOCCOc4ccc(-c5nnc(C)nn5)cc4)cc3)c2n1", "note": "(stereo not shown) [Compound K25]", "values": [{"measurement": "EC50", "setting": "[1]", "result": 5, "unit": "nM"}]}]}
